The values that follow come from PubChem BioAssay (NCI).

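Where inhibition never reached the appropriate level, the endpoint shown equals the highest concentration tested. Otherwise, values were interpolated linearly from a five-concentration, 48-hour dose response in 96-well plates. At the TGI there is no net growth.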

Among the test systems are LOX IMVI melanoma; MCF7 breast; 786-0 renal; NCI-H226 lung; BT-549 breast; CCRF-CEM leukemia; COLO 205 colon; HCT-116 colon; SK-OV-3 ovarian; SW-620 colon; HOP-92 NSCLC.
Assay in all cases: inhibition of tumour cell growth, NCI panel, 48 h

In the case of `CC(OC(=O)C(CC(=O)OC(C)(C)C)NC(=O)OC(C)(C)C)C(=O)OCc1ccccc1` (stereo unspecified), the TGI in the assay on LOX IMVI melanoma, in the assay on MCF7 breast, in the assay on 786-0 renal, in the assay on NCI-H226 lung, in the assay with BT-549 breast and in the assay on CCRF-CEM leukemia was above 100 µM each time. Also, the TGI with COLO 205 colon, in the assay with HCT-116 colon, with SK-OV-3 ovarian and with SW-620 colon was above 100 µM throughout.

Regarding `O=C(Nc1cccc2c1[nH]c1c(-c3ccccc3)nccc12)c1ccccc1[N+](=O)[O-]`, the TGI with LOX IMVI melanoma was above 100 µM; in the assay on NCI-H226 lung, 9.7 µM; in the assay with CCRF-CEM leukemia, above 100 µM; in the assay with COLO 205 colon it was above 100 µM; in the assay with HOP-92 NSCLC, 9.05 µM; with HCT-116 colon, above 100 µM. Moreover, in the assay on SW-620 colon, the TGI was above 100 µM.

In the case of `COC(=O)[C@H](Cc1ccc(OC(C)(C)C)cc1)N[C@H](C)C(=O)N[C@@H](Cc1ccccc1)C(=O)OCc1ccccc1`, the TGI was above 100 µM with LOX IMVI melanoma; 81.5 µM in the assay on MCF7 breast; above 100 µM with 786-0 renal; above 100 µM with NCI-H226 lung; above 100 µM with CCRF-CEM leukemia; above 100 µM in the assay on COLO 205 colon. Besides, the TGI with HOP-92 NSCLC, in the assay on HCT-116 colon, in the assay with SK-OV-3 ovarian and with SW-620 colon was above 100 µM throughout.

For the compound `COC(=O)[C@H](CC(C)C)Nc1c(O)c2c(c(O)c1Cl)C(=O)C=CC2=O`, the TGI was 5.74 µM in the assay with LOX IMVI melanoma; above 10 µM with 786-0 renal; above 10 µM in the assay on NCI-H226 lung; above 10 µM in the assay on BT-549 breast; above 10 µM in the assay with CCRF-CEM leukemia; above 10 µM with COLO 205 colon. In addition, the TGI is above 10 µM in the assay on HOP-92 NSCLC, 5.35 µM in the assay with HCT-116 colon, above 10 µM with SK-OV-3 ovarian and above 10 µM with SW-620 colon.

Regarding `COc1ccc(C2CC3(c4ccccc4)ON=C(c4ccccc4)N3c3ccccc3S2)cc1` (stereo unspecified), the TGI in the assay on LOX IMVI melanoma, in the assay with MCF7 breast, in the assay on 786-0 renal, with NCI-H226 lung, in the assay with BT-549 breast and with CCRF-CEM leukemia was above 100 µM each time. In addition, the TGI in the assay on COLO 205 colon, in the assay on HCT-116 colon, with SK-OV-3 ovarian and in the assay with SW-620 colon was above 100 µM in each case.

In the case of `CN1CCC2(CC1)C(=NC1CCCCC1)NC(=S)N2c1ccccc1`, the TGI in the assay on LOX IMVI melanoma, in the assay on MCF7 breast, in the assay on 786-0 renal, in the assay on NCI-H226 lung, in the assay on CCRF-CEM leukemia and in the assay with COLO 205 colon was above 100 µM each time. Further, the TGI in the assay on HOP-92 NSCLC, with HCT-116 colon, with SK-OV-3 ovarian and with SW-620 colon was above 100 µM each time.

`CC(=O)OC12c3ccccc3-c3ccccc3C1C1C(=O)OC(=O)C12` (stereo unspecified): the TGI in the assay on LOX IMVI melanoma, in the assay on MCF7 breast, in the assay on 786-0 renal, in the assay with NCI-H226 lung, in the assay with CCRF-CEM leukemia and with COLO 205 colon was above 10 µM in each case. For the same compound, the TGI in the assay with HOP-92 NSCLC, in the assay with SK-OV-3 ovarian and with SW-620 colon was above 10 µM each time.

On to `O=C(NCCNCCCNC(=O)c1cc(-c2ccccc2)nc2ccccc12)c1cccc(OCc2ccccc2)c1OCc1ccccc1`, for which the TGI with LOX IMVI melanoma is 2.95 µM; in the assay with MCF7 breast, 3.1 µM; with 786-0 renal, 3.09 µM; in the assay with NCI-H226 lung, 3.35 µM; with CCRF-CEM leukemia, 3.47 µM; in the assay on COLO 205 colon, 3.11 µM. Also, the TGI in the assay with HOP-92 NSCLC was 3.23 µM; in the assay on HCT-116 colon, 3.13 µM; in the assay with SK-OV-3 ovarian it was 3.1 µM; in the assay on SW-620 colon, 3.35 µM.

In the case of `CCCCCC/C=C1\CCC(CN2CCOCC2)C1=O` (stereo unspecified), the TGI is 25.1 µM in the assay with LOX IMVI melanoma; 8.75 µM in the assay on 786-0 renal; 30 µM in the assay with NCI-H226 lung; above 25.4 µM with CCRF-CEM leukemia; 32.3 µM in the assay on COLO 205 colon; 34.7 µM in the assay on HOP-92 NSCLC. The TGI is 27.7 µM in the assay on HCT-116 colon, above 79.4 µM with SK-OV-3 ovarian and 26.7 µM in the assay on SW-620 colon.

On to `COc1cccc(NC(=O)C(=O)C(C(=O)c2ccccc2F)C2OC(=O)c3ccccc32)c1` (stereo unspecified), for which the TGI in the assay on LOX IMVI melanoma was 63.3 µM; in the assay on NCI-H226 lung, 63.5 µM; with CCRF-CEM leukemia, 62.3 µM; with COLO 205 colon, 39.5 µM; in the assay with HOP-92 NSCLC it was above 100 µM; in the assay on HCT-116 colon, 46.1 µM. Moreover, the TGI in the assay with SK-OV-3 ovarian and in the assay with SW-620 colon was above 100 µM throughout.

As for `COC(=O)CCC(C)C1CCC2C3C(C[C@H](OC(C)=O)[C@]12C)[C@@]1(C)CCC2(C[C@H]1C[C@H]3OC(C)=O)OOC1(CC[C@]3(C)C4C[C@H](OC(C)=O)[C@]5(C)C(C(C)CCC(=O)OC)CCC5C4[C@H](OC(C)=O)C[C@@H]3C1)OO2` (stereo partly specified), the TGI with LOX IMVI melanoma, in the assay with MCF7 breast, in the assay with 786-0 renal, with NCI-H226 lung, with BT-549 breast and in the assay on CCRF-CEM leukemia was above 100 µM in each case. The TGI in the assay with COLO 205 colon, in the assay with HCT-116 colon, in the assay with SK-OV-3 ovarian and in the assay with SW-620 colon was above 100 µM in each case.

`CC(C)(CCCCC(C)(C)[N+](C)(C)C)[N+](C)(C)C`: the TGI with MCF7 breast, with 786-0 renal, with CCRF-CEM leukemia, in the assay on COLO 205 colon, in the assay with HCT-116 colon and with SK-OV-3 ovarian was above 100 µM in each case. In the assay on SW-620 colon, the TGI is above 100 µM.

As to `O=C(OCc1ccccc1)N(CCCCN(CCCNCc1ccccc1)C(=O)OCc1ccccc1)CCCNCc1ccccc1`, the TGI in the assay with MCF7 breast is above 100 µM; in the assay with 786-0 renal, 1.29 µM; in the assay with NCI-H226 lung, 2.07 µM; in the assay with COLO 205 colon, 0.33 µM; in the assay with HOP-92 NSCLC, 2.82 µM; in the assay with HCT-116 colon, 0.384 µM. In addition, the values for the TGI in the assay with SK-OV-3 ovarian and in the assay with SW-620 colon were above 100 µM and 0.39 µM, respectively.

As for `C/C(=N\Nc1nc2cccnc2s1)c1ccccn1`, the TGI in the assay on MCF7 breast is above 54.8 µM; with 786-0 renal, above 100 µM; in the assay with BT-549 breast, 15.9 µM; in the assay with CCRF-CEM leukemia, above 100 µM; in the assay on COLO 205 colon, above 100 µM; in the assay on HCT-116 colon, above 32.2 µM. In addition, the TGI with SK-OV-3 ovarian was 2.79 µM; with SW-620 colon it was above 100 µM.
